Data from patent US9447023B2, “Curcumin and tetrahydrocurcumin derivatives” (Research Foundation of the City University of New York, priority 2006, dated 2016).
Each block holds one compound with its values, some of them ahead of it.

Tests used:
[1] = Molar extinction coefficient of curcumin analogs (UV-visible); format: physicochemical; conditions: in M-1 cm-1 (unit assumed)
Excerpt: Each curcumin derivative is bioconjugated to create a biopolymer that can be used as an eco-friendly dye. For example, compounds 1b and 1d can be conveniently conjugated to the lysine residues of proteins, the azide and the alkyne derivatives can be attached to proteins via the ‘click’ bioconjugation reaction. Compounds 1c and 1e have the advantage that unlike most reactive groups which are used for bioconjugation, alkyne and azide groups are stable in aqueous media (Scheme 5). The absorbance and fluorescence properties of these dyes are similar to the parent molecule.
Reagent-grade solvents such as acetone and tetrahydrofuran were used without further purification. For High Performance Liquid Chromatography (HPLC), methylene chloride was used with Pure Solv™ solvent purification system. Curcumin was obtained from Acros-Organics. Copper acetate and sodium ascorbate were purchased from Sigma. Silica gel 60 F 254 plates for thin-layer chromatography (TLC) were purchased from Merck. Column chromatographic separations were carried out using silica gel (Fisher) with a particle size of 0.040-0.063 mm. Nuclear magnetic resonance (NMR) was recorded on Bruker Avance 600 (600 MHz) spectrometers. Mass spectra (ES-MS) were recorded on a LC/MS and Time Of Flight (TOF) mass spectrometer. U.V.-Visible spectra were recorded using a ChemStation Rev. A.10.01 from Agilent Technologies

[2] = human subjects, doses as high as 8 g of curcumin per day; cited from earlier work
amyloid plaques = conditions: cited from earlier work
[3] = unmodified curcumin, background statement; cited from earlier work
Oligodendroglioma cells = assay: Apoptosis of Oligodendroglioma cells (DAPI staining); format: cell-based; conditions: 50 micro molar
Procedure: The small molecule curcumin analogs including curcumin dimers, curcumin polymers and curcumin modified polymers, typical examples shown in Schemes 1-6 of the present invention can be used for the treatment of cancer. […] Oligodendroglioma cells were treated with 50 micro molar concentration of curcumin and asymmetric curcumin dimer stained with DAPPI presented.
Very limited cell death is seen in human fibroblasts, which serve as a benign control cell line. The percentage of apoptosis is lower at higher concentrations (100 μM and more) as compared to that at 20 μM and 50 μM for all the compounds including curcumin because at higher concentration curcumin and analogs of the invention cause HOG cell necrosis. This alternate pathway of cell killing has been established via DNA laddering studies.

Molar Extinction Coeffecient [1]: 26764
Compound: COc1cc(/C=C\C(=O)CC(=O)/C=C\c2ccc(OC(=O)CCCC(=O)NCCOCCOCCOCCOCCOCCOCCN=[N+]=[N-])c(OC)c2)ccc1O [Compound 4, Mono-2-(2-(2-(2-(2-(2-(2-azidoethoxy)ethoxy)ethoxy)ethoxy)ethoxy)ethoxy)ethylcarbamoyl butanoate-Curcumin]

Compound: C#CCOc1ccc(C=CC(=O)CC(=O)C=Cc2ccc(O)c(OC)c2)cc1OC [Compound 5, Mono-Propargyl Curcumin]
Molar Extinction Coeffecient [1]: 29510

Compound: COc1cc(/C=C\C(=O)CC(=O)/C=C\c2ccc(O)c(OC)c2)ccc1O [Curcumin, (1Z,6Z)-1,7-bis(4-hydroxy-3-methoxyphenyl)hepta-1,6-diene 3,5-dione]
average peak serum concentration [2]: 652.5 ng/mL
Molar Extinction Coeffecient [1]: 50,000
amyloid levels and plaque burden (amyloid plaques; fed to mice with advanced amyloid accumulation): reduced amyloid levels and plaque burden
blood-brain barrier crossing and plaque binding (amyloid plaques; injected, transgenic mouse model): crosses the blood-brain barrier and binds amyloid plaques
water and plasma solubility [3]: poor water and plasma solubility

Compound: (2-(2-(2-(2-(2-(2-(2-(4-methylene)-1H-1,2,3-triazol-1-yl)ethoxy)ethoxy)ethoxy)ethoxy)ethoxy)ethoxy)ethylcarbamoyl butanoate curcumin dimer [Compound 7]
apoptosis characterized by nuclear condensation (DAPI staining) (Oligodendroglioma cells): Extensive apoptosis
induction of apoptosis relative to parent compound curcumin (Oligodendroglioma cells): superior in inducing apoptosis
